We go through two compounds from US9493466B2, “Treatment of cancer with TOR kinase inhibitors” (Signal Pharmaceuticals, LLC, priority 2011, dated 2016).

One data set deals with AU565. The data set can be described thus: Growth inhibition assay for breast cancer. It is filed as cell-based. To be noted: AU565 (Luminal, Her2+), 96 hours. From the text: (§1) Growth Inhibition Assay for Breast Cancer (BC) (Compound 1). All breast cancer cell lines were maintained and tested in appropriate culture media. The seeding density for each cell line was optimized to ensure assay linearity in 384-well plates.
(§2) Increasing concentrations of Compound 1 were spotted via an acoustic dispenser (EDC ATS-100) into an empty 384-well plate. Compound 1 was spotted in a 10-point serial dilution fashion (3-fold dilution) in duplicate within the plate. The dimethyl sulfoxide (DMSO) concentration was kept constant for a final assay concentration of 0.1% DMSO. Plates were replicated for use against different cell lines and testing periods. After compound plate replication, all plates were sealed (Agilent ThermoLoc) and stored at −20° C. for up to 1 month. When ready for testing, plates were removed from the freezer, thawed, and unsealed just prior to the addition of the test cell.
(§3) Prior to testing, cells were grown and expanded in culture flasks to provide sufficient amounts of starting material. Cells were then diluted to their desired densities and added directly to the Compound 1-spotted 384-well plates. Cells were allowed to grow for 96 hours at 37° C./5% CO2. At the time of setup (t0), initial cell number was assessed via a viability assay (Cell Titer-Glo) and read for luminescence. After 96 hours, cell viability of Compound 1-treated cells was assessed via Cell Titer-Glo and read for luminescence.
(§4) Cell lines were assayed for growth inhibition by Compound 1 for at least two independent tests. All data was normalized and represented as a percentage of the DMSO-treated control cells. […] The potency of Compound 1 in different subtypes of breast cancer cell lines is shown in FIG. 7A, while the correlation of Compound 1 sensitivity to ER, HER, PIK3CA, and TP53 status is shown in FIG. 7B.

In the next data set the test system is BT-474. The data set can be described thus: Growth inhibition assay for breast cancer. It is filed as cell-based. As to conditions: BT-474 (Luminal, Her2+), 96 hours.
Text: as §1, §2, §3, §4

The test system of a further data set is EFM-192A. The data set can be described thus: Growth inhibition assay for breast cancer. As to conditions: EFM-192A (Luminal, Her2+), 96 hours. It is filed as cell-based.
Text: as §1, §2, §3, §4

A further data set deals with HCC1143. The data set can be described thus: Growth inhibition assay for breast cancer. It is filed as cell-based. As to conditions: HCC1143 (Basal, TN), 96 hours.
Text: as §1, §2, §3, §4

The subject of another data set is MCF12A. As to the kind of experiment: Growth inhibition assay for breast cancer. The format is cell-based. As to conditions: MCF12A (Basal, TN), 96 hours.
Text: as §1, §2, §3, §4

Another data set concerns MCF7. The data set can be described thus: Growth inhibition assay for breast cancer. The format is cell-based. To be noted: MCF7 (Luminal, ER+), 96 hours.
Text: as §1, §2, §3, §4

The next data set concerns MDA-MB-175-VII. As to the kind of experiment: Growth inhibition assay for breast cancer. As to conditions: MDA-MB-175-VII (Luminal, ER+), 96 hours. The format is cell-based.
Text: as §1, §2, §3, §4

Another data set relates to SK-BR-3. The data set can be described thus: Growth inhibition assay for breast cancer. It is filed as cell-based. As to conditions: SK-BR-3 (Luminal, Her2+), 96 hours.
Text: as §1, §2, §3, §4

Data set [1] in a line: Phase 1/2 study Part A: pharmacokinetics. It is filed as in vivo, human. Here is the method:
During the first cycle only in Part A, each subject will be administered a single dose of Compound 1 (Day −1), followed by a 48-hour observation and PK sampling period, followed on Day 1 by daily uninterrupted dosing for 28 days (Cycle 1=30 days). In subsequent Part A cycles, subjects are treated in 28-day cycles with continuous dosing from Day 1 to 28. In Part B, subjects will receive continuous dosing for 28 days from the beginning—there is neither an initial observation period nor a 48-hour PK collection.

Another data set has as its system U87MG tumors. As to the kind of experiment: U87MG human glioblastoma xenograft model (Compound 2). The format is in vivo, SCID mice. Here is the method: U87MG Human Glioblastoma Xenograft Model (Compound 2). Efficacy Studies: Groups of female SCID mice bearing U87MG tumors (n=8-10/group) were dosed orally with vehicle or Compound 2 (doses ranged between 0.05 and 1 mg/kg) throughout the study, starting when tumor volumes reached approximately 170-180 mm^3. The twice daily (BID) dose groups were dosed with a 10-hour separation between morning and evening doses. In the positive control group, rapamycin was administered every third day (Q3D) via intraperitoneal (IP) route. At the end of each study, plasma and/or tumor samples were collected.
Cell Line and Culture. U87MG cell line was obtained from American Tissue Culture Collection (ATCC) (Gaithersburg, Md.) and grown in growth medium containing MEM, 2 mM L-glutamine, 0.1 mM non-essential amino acids, and 1 mM sodium pyruvate plus 10% FBS. The cells were detached from tissue culture flasks using trypsin-EDTA. After centrifugation, the cell pellets were suspended in PBS and cells counted using a hemocytometer. The final volume was adjusted to 5×10^6 cells/0.1 mL of PBS.
Tumor Cell Inoculation. […]
Randomization of Animals. […] The tumor of each animal was measured and animals with tumors ranging between 170 and 180 mm^3 were included in the study. […]
Tumor Measurements. Tumor volumes were determined prior to the initiation of treatment and were considered as the starting volumes. Thereafter, tumors were measured twice a week for the duration of the study. The long and short axes of each tumor were measured using a digital caliper in millimeters. Tumor volumes were calculated using the formula: width^2×length/2. […]
Body Weight Measurements. Initial body weights were recorded prior to the initiation of treatment using a digital scale. The percentage body weight change during the course of the study was calculated using initial body weight measurements. Body weights of each animal were measured twice a week at the same time as the tumor measurements. Body weights were measured more frequently if significant decreases were noted during the course of the study.
A general note: A xenograft is tissue or cells of one species grown in another, often human tumour cells in immunodeficient mice.

As usually defined, the GI50 is the concentration at which growth is held to half of that of the control. Higher therefore signals lower sensitivity of the cells. As to `CO[C@H]1CC[C@H](N2C(=O)CNc3ncc(-c4ccc(C(C)(C)O)nc4)nc32)CC1` [Compound 1, 7-(6-(2-hydroxypropan-2-yl)pyridin-3-yl)-1-((1r,4r)-4-methoxycyclohexyl)-3,4-dihydropyrazino-[2,3-b]pyrazin-2(1H)-one], the concentration for 50% growth inhibition (GI50) in the data set on AU565 worked out at 213 nM; in the data set with BT-474, 226 nM; with EFM-192A it was 192 nM; with HCC1143, 343 nM; with MCF12A it was 44.4 nM; with MCF7, 181 nM. Moreover, the 50% growth inhibitory concentration (GI50) in the data set on MDA-MB-175-VII was 40.8 nM; in the data set with SK-BR-3, 121 nM. Further, in [1] (45 mg, day 15), the “mean steady state Cmax” value was determined as 485 ng/mL. This compound returned an AUC0-24 in [1] (45 mg, mean steady state) of 2371 ng^xhr/mL. The drug accumulation result in [1] (after 15 days of dosing) is reported as “only minimal drug accumulation”. Besides, the “exposures versus levels estimated to provide >50% inhibition of TORC1 (pS6) and TORC2 (pAKT) for at least 8 hours” value in data set [1] (dose levels of 30 mg and higher, estimate from preclinical xenograft models) is “exceeded”. In addition, in [1] (high intersubject variability), the “drug exposure versus dose” value was “Dose proportional”.
As for `CCN1C(=O)CNc2ncc(-c3ccc(-c4nc[nH]n4)nc3C)nc21` [Compound 2, 1-ethyl-7-(2-methyl-6-(1H-1,2,4-triazol-3-yl)pyridin-3-yl)-3,4-dihydropyrazino[2,3-b]pyrazin-2(1H)-one], the “average tumor volumes compared with vehicle” value is “significantly smaller (p<0.001)” in the data set with U87MG tumors (0.05, 0.1 and 0.3 mg/kg BID oral, Day 35); “significantly smaller (p<0.001)” in the data set with U87MG tumors (0.1, 0.5 and 1 mg/kg QD oral, Day 34). For the same compound, the “lowest efficacious dose (approximately 65% tumor volume inhibition)” value in the data set on U87MG tumors (QD oral, 3 weeks) was 0.5 mg/kg.
